Measured values reported in the CheMixHub viscosity set.
± gives the uncertainty stated by the source.

Test: xn = mol fraction of the nth substance listed

COc1ccccc1O + CS(C)=O
viscosity [mPa·s], 101 kPa
Conditions | x2 = 0.2 | x2 = 0.3 | x2 = 0.4 | x2 = 0.5 | x2 = 0.6 | x2 = 0.7 | x2 = 0.8 | x2 = 0.9
298.15 K | 10.62 ± 0.12 | 12.4 ± 0.13 | 11.9 ± 0.12 | 9.46 ± 0.1 | 6.91 ± 0.07 | 4.97 ± 0.05 | 3.59 ± 0.04 | 2.66 ± 0.03
308.15 K | 6.47 ± 0.08 | 7.54 ± 0.1 | 7.38 ± 0.09 | 6.23 ± 0.07 | 4.81 ± 0.05 | 3.67 ± 0.04 | 2.83 ± 0.03 | 2.12 ± 0.02
318.15 K | 4.35 ± 0.06 | 5.01 ± 0.07 | 4.98 ± 0.07 | 4.4 ± 0.05 | 3.59 ± 0.04 | 2.8 ± 0.03 | 2.2 ± 0.02 | 1.75 ± 0.02

O=C[C@H](O)[C@@H](O)[C@H](O)CO + C[N+](C)(C)CCO.[Cl-]
viscosity [mPa·s]
Conditions | x2 = 0.5 | x2 = 0.6 | x2 = 0.667
303 K, 101 kPa | 34000 ± 5900 | – | –
313 K, 101 kPa | 11900 ± 1700 | – | –
313.2 K, 100 kPa | 855.5 ± 47 | 1450 ± 97 | 3450 ± 240
318.2 K, 100 kPa | 565.8 ± 30 | 886.5 ± 51 | 1886 ± 120
323 K, 101 kPa | 4740 ± 570 | – | –

CC(C)[N+](=O)[O-] + Cc1cc(C)cc(C)c1
293.15 K, 101.33 kPa
Conditions | viscosity [mPa·s]
x1 = 0.0955 | 0.691 ± 0.007
x1 = 0.1983 | 0.691 ± 0.007
x1 = 0.2294 | 0.69 ± 0.007
x1 = 0.4005 | 0.691 ± 0.007
x1 = 0.5048 | 0.696 ± 0.007
x1 = 0.6007 | 0.701 ± 0.007
x1 = 0.7022 | 0.708 ± 0.007
x1 = 0.8014 | 0.717 ± 0.007
x1 = 0.898 | 0.738 ± 0.007

BrCCBr + Cc1ccc(C)cc1
101.33 kPa
Conditions | viscosity [mPa·s]
298.15 K, x1 = 0.1435 | 0.6686 ± 0.0084
298.15 K, x1 = 0.2783 | 0.7322 ± 0.009
298.15 K, x1 = 0.391 | 0.7899 ± 0.0096
298.15 K, x1 = 0.4898 | 0.887 ± 0.011
298.15 K, x1 = 0.5921 | 1.001 ± 0.012
298.15 K, x1 = 0.6809 | 1.082 ± 0.013
298.15 K, x1 = 0.7685 | 1.169 ± 0.014
298.15 K, x1 = 0.8555 | 1.309 ± 0.015
298.15 K, x1 = 0.9211 | 1.459 ± 0.017
308.15 K, x1 = 0.1371 | 0.5822 ± 0.0073
308.15 K, x1 = 0.2566 | 0.6257 ± 0.0078
308.15 K, x1 = 0.3821 | 0.6992 ± 0.0086
308.15 K, x1 = 0.4845 | 0.7526 ± 0.0091
308.15 K, x1 = 0.5874 | 0.8292 ± 0.01
308.15 K, x1 = 0.6798 | 0.9216 ± 0.011
308.15 K, x1 = 0.7647 | 1.018 ± 0.012
308.15 K, x1 = 0.8499 | 1.154 ± 0.013
308.15 K, x1 = 0.9258 | 1.273 ± 0.015

Brc1ccccc1 + Cc1ccc(C)cc1
101 kPa
Conditions | viscosity [mPa·s]
293.15 K, x1 = 0.1123 | 0.645 ± 0.012
293.15 K, x1 = 0.225 | 0.695 ± 0.012
293.15 K, x1 = 0.3321 | 0.746 ± 0.013
293.15 K, x1 = 0.4327 | 0.795 ± 0.014
293.15 K, x1 = 0.5301 | 0.845 ± 0.015
293.15 K, x1 = 0.6412 | 0.897 ± 0.015
293.15 K, x1 = 0.7553 | 0.95 ± 0.016
293.15 K, x1 = 0.9107 | 1.018 ± 0.017
298.15 K, x1 = 0.1121 | 0.61 ± 0.011
298.15 K, x1 = 0.2263 | 0.658 ± 0.012
298.15 K, x1 = 0.3316 | 0.701 ± 0.012
298.15 K, x1 = 0.4646 | 0.758 ± 0.013
298.15 K, x1 = 0.5298 | 0.785 ± 0.014
298.15 K, x1 = 0.6418 | 0.835 ± 0.014
298.15 K, x1 = 0.755 | 0.895 ± 0.015
298.15 K, x1 = 0.9101 | 0.955 ± 0.016
303.15 K, x1 = 0.1154 | 0.575 ± 0.011
303.15 K, x1 = 0.22 | 0.615 ± 0.011
303.15 K, x1 = 0.3355 | 0.657 ± 0.012
303.15 K, x1 = 0.4366 | 0.7 ± 0.012
303.15 K, x1 = 0.5593 | 0.75 ± 0.013
303.15 K, x1 = 0.6816 | 0.799 ± 0.014
303.15 K, x1 = 0.7723 | 0.835 ± 0.015
303.15 K, x1 = 0.9149 | 0.891 ± 0.015

C1=C[C@H]2[C@@H](C1)[C@H]1C=C[C@@H]2C1 + Cc1ccc(C)cc1
viscosity [mPa·s], 101.2 kPa
Conditions | x1 = 0.1024 | x1 = 0.1971 | x1 = 0.3006 | x1 = 0.3993 | x1 = 0.4999 | x1 = 0.6007 | x1 = 0.7014 | x1 = 0.8001 | x1 = 0.8993
293.15 K | 0.7661 ± 0.042 | 0.8509 ± 0.046 | 0.9724 ± 0.055 | 1.127 ± 0.069 | 1.347 ± 0.087 | 1.626 ± 0.11 | 2.014 ± 0.15 | 2.625 ± 0.22 | 3.5 ± 0.28
298.15 K | 0.7144 ± 0.04 | 0.7986 ± 0.043 | 0.9075 ± 0.051 | 1.04 ± 0.062 | 1.229 ± 0.078 | 1.483 ± 0.1 | 1.85 ± 0.14 | 2.402 ± 0.19 | 3.126 ± 0.24
303.15 K | 0.6724 ± 0.037 | 0.7508 ± 0.04 | 0.8496 ± 0.047 | 0.9666 ± 0.057 | 1.141 ± 0.072 | 1.367 ± 0.093 | 1.693 ± 0.13 | 2.174 ± 0.17 | 2.81 ± 0.21
308.15 K | 0.6225 ± 0.035 | 0.7021 ± 0.038 | 0.7934 ± 0.044 | 0.9051 ± 0.053 | 1.066 ± 0.067 | 1.279 ± 0.086 | 1.58 ± 0.12 | 1.995 ± 0.15 | 2.529 ± 0.19
313.15 K | 0.5997 ± 0.033 | 0.6653 ± 0.035 | 0.7493 ± 0.041 | 0.8554 ± 0.05 | 1.001 ± 0.062 | 1.19 ± 0.079 | 1.457 ± 0.1 | 1.826 ± 0.13 | 2.271 ± 0.16
318.15 K | 0.5879 ± 0.033 | 0.6586 ± 0.035 | 0.7357 ± 0.04 | 0.8296 ± 0.048 | 0.9662 ± 0.058 | 1.138 ± 0.073 | 1.371 ± 0.094 | 1.689 ± 0.12 | 2.104 ± 0.15

CC(C)[N+](=O)[O-] + Cc1ccc(C)cc1
293.15 K, 101.33 kPa
Conditions | viscosity [mPa·s]
x1 = 0.1052 | 0.64 ± 0.006
x1 = 0.2079 | 0.636 ± 0.006
x1 = 0.2945 | 0.638 ± 0.006
x1 = 0.3973 | 0.644 ± 0.007
x1 = 0.4976 | 0.651 ± 0.007
x1 = 0.6039 | 0.664 ± 0.007
x1 = 0.7089 | 0.678 ± 0.007
x1 = 0.8008 | 0.699 ± 0.007
x1 = 0.8925 | 0.727 ± 0.007

BrCCBr + Cc1cccc(C)c1
101.33 kPa
Conditions | viscosity [mPa·s]
298.15 K, x1 = 0.1391 | 0.6538 ± 0.0082
298.15 K, x1 = 0.269 | 0.7069 ± 0.0087
298.15 K, x1 = 0.3835 | 0.8095 ± 0.0099
298.15 K, x1 = 0.4852 | 0.8843 ± 0.011
298.15 K, x1 = 0.5776 | 1.002 ± 0.012
298.15 K, x1 = 0.6789 | 1.064 ± 0.013
298.15 K, x1 = 0.7684 | 1.191 ± 0.014
298.15 K, x1 = 0.8458 | 1.307 ± 0.015
298.15 K, x1 = 0.9257 | 1.447 ± 0.017
308.15 K, x1 = 0.1463 | 0.587 ± 0.0074
308.15 K, x1 = 0.2621 | 0.6362 ± 0.0079
308.15 K, x1 = 0.3771 | 0.7044 ± 0.0086
308.15 K, x1 = 0.4834 | 0.764 ± 0.0093
308.15 K, x1 = 0.5853 | 0.8526 ± 0.01
308.15 K, x1 = 0.6796 | 0.9345 ± 0.011
308.15 K, x1 = 0.7697 | 1.018 ± 0.012
308.15 K, x1 = 0.8516 | 1.143 ± 0.013
308.15 K, x1 = 0.9254 | 1.259 ± 0.015
